Test results taken from patent US20160310512A1, “THERAPY REGIMEN FOR TREATING SEVERE ACNE RELATED DISEASES” (GALDERMA RESEARCH & DEVELOPMENT, priority 2013, published 2016).

Tests used:
[1] = when combined with BPO; unlike tretinoin; cited from earlier work
severe acne vulgaris [2] = assay: Same clinical study: composite overall success (efficacy + safety); assay type: in vivo, human
Excerpt: To achieve this objective, a primary outcome, overall success, was defined as a composite endpoint including efficacy and safety measurements.
Overall success was deemed to be reached when the 2 following criteria were fulfilled:
(§1) Reduction of at least 75% of number of nodules at the end of treatment

P. acnes = P. acnes presence by UV fluorescence photography (Visia system), subset of 40 subjects; assay type: in vivo
Experimental: Atrophic acne scar counts were conducted on half the face and the presence of P. acnes were also assessed by UV fluorescence photography (Visia® system—Canfield Scientific, Inc.). […] As few centers were equipped with this system, this test was performed on a subset of only 40 subjects.

severe acne vulgaris [3] = assay: Multi-center randomized investigator-blind clinical study, 20 weeks: efficacy on acne lesions, nodules and atrophic scars; assay type: in vivo, human; conditions: for Atrophic acne scar count (Mean ± SD): half face
Experimental: This example was the first study evaluating the concomitant use of these treatments.
Isotretinoin is administrated under capsule form (of 40 mg and/or 10 mg each). The quantity administrated was calculated according to patient weight and treatment duration in order to finally administrate a dosage of 0.5 mg/kg for the first 4 weeks of treatment and 1 mg/kg for the 16 remaining weeks.
This study was conducted as a multi-center, randomized, investigator-blind, controlled and parallel group trial. This non-inferiority study involved subjects of any race, aged 12 to 35 years inclusive with severe acne and meeting specific eligibility criteria.
Subjects were randomized at baseline and treated for 20 weeks with either Adapalene-BPO gel associated with oral doxycycline or its vehicle gel associated with oral Isotretinoin.
A total of 266 subjects were enrolled across 29 centres in Canada. Of which, 217 subjects were included in the analysis-per-protocol (PP) populations (all randomized subjects without any major protocol deviations) for primary endpoint analysis. All other endpoints were analysed with population-intent-to-treat (ITT) (all randomized subjects who were dispensed study medication) (N=266).
For efficacy variables, in order to evaluate the effect of major deviations or of data exclusions, the ITT population were analyzed at each visit using the last observation carried forward (LOCF) to impute missing values. If no post-baseline data was available, baseline was carried forward. […] The other missing values were not replaced (observed data).
as §1
Other secondary efficacy endpoints were the percent change from baseline visit in Total lesion counts, Inflammatory lesion counts, Nodule counts, and the total atrophic acne scar counts.

[4] = ITT Observed population, count (%)
[5] = APT, Very Bothered at least 1 Month + Persisting at least 2 Weeks + At least 1 episode
[6] = ITT observed, chelitis, xerosis, erythema, dry mouth, pruritus, epistaxis, conjunctivitis, eye irritation, dry eye
[7] = ITT observed, lip balm, moisturizer, cleanser, cosmetics not counted
[8] = ITT observed, phototoxicity, allergic skin/eczematous reaction, candida vaginitis
[9] = ITT observed, study termination at subject's request motivated by treatment concern

COc1ccc(-c2ccc3cc(C(=O)O)ccc3c2)cc1C12CC3CC(CC(C3)C1)C2 [Adapalene, 6-[3-(1-adamantyl)-4-methoxyphenyl]-2-naphtoic acid]
stability in the presence of light [1]: stable

CC1=C(/C=C/C(C)=C/C=C/C(C)=C\C(=O)O)C(C)(C)CCC1 [Vehicle + Isotretinoin, 13-cis-retinoic acid]
Overall success: Failure (severe acne vulgaris [2]; [4]): 52 (41.6%)
Overall success: Success (severe acne vulgaris [2]; [4]): 73 (58.4%)
Overall Success (severe acne vulgaris [2]; PP population, 20 weeks): 65 (58.0%) patients (%)
Overall success: Failure (severe acne vulgaris [2]; PP population, count (%)): 47 (42.0%)
composite endpoint (efficacy and safety), overall success (severe acne vulgaris [2]; intent-to-treat population, p=0.125): 54.9%
composite endpoint (efficacy and safety), overall success (severe acne vulgaris [2]; per-protocol population, p=0.014): 58%
P. acnes fluorescence, median percent change (P. acnes; week 2): +14.1%
P. acnes reduction (in words) (P. acnes; week 20): in favor of ISO
Efficacy failure (nodule reduction <75%), Event (severe acne vulgaris [3]; ITT observed): 2 n
Efficacy failure (nodule reduction <75%), Subject (severe acne vulgaris [3]; ITT observed): 2 (1.6%) n, %
Efficacy Success (nodule reduction >75%) (severe acne vulgaris [3]; PP population, end of 20-week treatment): 110 (98.2%) patients (%)
Atrophic acne scar count (Mean ± SD) (severe acne vulgaris [3]; W12-LOCF (ITT)): 16.7 ± 15.7
Atrophic acne scar count (Mean ± SD) (severe acne vulgaris [3]; W20-LOCF (ITT)): 16.1 ± 16.7
Inflammatory lesions (Median) (not including nodules), % change (severe acne vulgaris [3]; Week 20, ITT LOCF): −95%
Nodules (Mean), % change (severe acne vulgaris [3]; Week 20, ITT LOCF): −96%
Total lesion counts (Median), % change (severe acne vulgaris [3]; Week 20, ITT LOCF): −93%
acne lesion outcomes compared to Adapalene-BPO+Doxycycline (in words) (severe acne vulgaris [3]; Week 20, most of the acne lesion outcomes): superior
Clinically significant lab abnormality, Evt (APT): 6 n
Clinically significant lab abnormality, Subj. (APT): 4 (3.0%) n (%)
Related AE requiring a prescription of a concomitant medical treatment, Evt (APT): 34 n
Related AE requiring a prescription of a concomitant medical treatment, Subj. (APT): 27 (25.6%) n (%)
Related AEs deemed as safety failure, Subj. (APT): 45 (33.8%) n (%)
Related AEs leading to discontinuation, Evt (APT): 5 n
Related AEs leading to discontinuation, Subj. (APT): 4 (3.0%) n (%)
Related AEs, Evt (APT): 299 n
Related AEs, Subj. with at least one event (APT): 117 (88.0%) n (%)
Related serious AEs, Evt (APT): 1 n
Related serious AEs, Subj. (APT): 1 (0.8%) n (%)
Related severe AEs, Evt (APT): 5 n
Related severe AEs, Subj. (APT): 5 (3.8%) n (%)
subjects reporting at least 1 related AE (APT): 88%
subjects with related AEs deemed as a safety failure (AEs of special management concern) (APT): 33.8%
Other medically relevant related AEs, Evt [5]: 35 n
Other medically relevant related AEs, Subj. [5]: 23 (17.3%) n (%)
Related AEs deemed as safety failure, Evt (APT, each AE counted once): 73 n
Clinically significant lab abnormality, Event (ITT observed): 6 n
Clinically significant lab abnormality, Subject (ITT observed): 4 (3.2%) n, %
Inability to escalate to Iso 1 mg/kg/day, Event (ITT observed): 5 n
Inability to escalate to Iso 1 mg/kg/day, Subject (ITT observed): 5 (4.0%) n, %
Necessity of oral drug downward dose adjustment, Event (ITT observed): 2 n
Necessity of oral drug downward dose adjustment, Subject (ITT observed): 2 (1.6%) n, %
Related AE leading to discontinuation, Event (ITT observed): 5 n
Related AE leading to discontinuation, Subject (ITT observed): 4 (3.2%) n, %
Related SAE, Event (ITT observed): 1 n
Related SAE, Subject (ITT observed): 1 (0.8%) n, %
Related Severe AE, Event (ITT observed): 5 n
Related Severe AE, Subject (ITT observed): 5 (4.0%) n, %
Safety Failure, Event (ITT observed): 95 n
Safety Failure, Subject (ITT observed): 50 (40.0%) n, %
subjects with safety failure (ITT observed): 40.0%
Predefined related AE Very Bothered, at least 1 Month, Event [6]: 2 n
Predefined related AE Very Bothered, at least 1 Month, Subject [6]: 2 (1.6%) n, %
Related AE requiring a prescription of a concomitant medical treatment, Event [7]: 34 n
Related AE requiring a prescription of a concomitant medical treatment, Subject [7]: 27 (21.6%) n, %
Predefined related AE for at least 1 episode, Event [8]: 21 n
Predefined related AE for at least 1 episode, Subject [8]: 15 (12.0%) n, %
Subject's treatment concern, Event [9]: 2 n
Subject's treatment concern, Subject [9]: 2 (1.6%) n, %
Safety Success (absence of medically relevant events) (PP population, 20 weeks): 67 (59.8%) patients (%)
